# Laboratory results taken from patent US10758522B2, “Small molecule analogs of the nemo binding peptide” (THE SCRIPPS RESEARCH INSTITUTE, priority 2015, dated 2020).
# Key:
# Ercc1−/Δ mice = assay: Systemic treatment of Ercc1−/Δ mice, intervertebral disc proteoglycan; type: in vivo, mouse; settings: IP 3× a week, 10 mg/kg for 8 weeks
# Procedure: The ability of the compounds to work systemically was also tested. In these experiments, Ercc1^−/Δ mice with accelerated aging (lifespan of 5 months) were treated systemically, 3× a week, by IP injection at a dose of 10 mg/kg for 8 weeks. Since we previously had shown that the NF-κB is a key factor in driving intervertebral disc degenerated, we assessed the effects of treatment on proteoglycan synthesis and content in the discus following treatment.
# [1] = molecular target: T1, IKK complex (IKKß, IKKα and NEMO) (Homo sapiens, UniProt Q9Y6K9); assay: Co-immunoprecipitation of NEMO with IKKß in 293 cells; type: cell-based; settings: Zinc-5 at 4 hours, Zinc-13 at 1 hour, NBD peptide at 4 hours
# T1 construct: analyzed by Western blot for the level of co-precipitated NEMO; endogenous in cells; host or cells: 293 (HEK293) cells
# Excerpt: FIG. 8 is a bar graph showing the inhibition of TNFα by NBDA-1 (Zinc-13). […] In addition, we have examined the ability of the compounds to disrupt the IKK complex, comprised of IKKß, IKKα and NEMO.
# A non-functional, related compound Zinc-7 had no effect.
# [2] = tested on: K14-Cre; Ercc1−/flox mice; assay: Topical treatment of skin aging in K14-Cre; Ercc1−/flox mice; type: in vivo, mouse; settings: daily
# Procedure: To test the ability of NBDA-1 to function in vivo, the drug was tested in several models of aging. In FIG. 12, the ability of topical treatment of NBDA-1 to reduce signs of skin aging is shown. Areas on the back of normal mice or mice with enhanced skin aging (K14-Cre; Ercc1^−/flox) were shaved and then treated daily with drugs or control creams.
# NF-κB target genes = assay: qRT-PCR of NF-κB target genes in LPS-stimulated Raw 264.7 cells; type: cell-based, mouse; settings: Raw 264.7, LPS
# Procedure: Effect of the NBD mimetics on expression of NF-kB regulated genes in the Raw mouse macrophage cell line. Treatment of the Raw cells with the indicated drugs prior to addition of LPS reduced NF-kB-mediated gene expression as measured by RT-PCR.
# To determine whether the inhibitory effect of the mimetics is TNF-α-dependent, LPS-mediated NF-κB activation via TLR4 was examined to determine a broader inhibitory effect of the novel NBD mimetics. NF-κB was stimulated in Raw 264.7 by 1 ug/ml of LPS for 2 hr and genes transcriptionally regulated by NF-κB were determined by qRT-PCR analysis. Both an IKK active site inhibitor IKKi VII (2 μM) and the 8K-NBD peptide (400 μM) were included as positive controls and the expression of COX2, IL-6, IL-1β, TNF-α, IκBα and iNOS were assessed.
# Raw 264.7 cells were treated with a 50 μM solution of the SR compound for 30 minutes, and then the mRNA was harvested 2 hours after addition of 1 μg/mL LPS.
# Snap frozen tissues were preserved in RNAlater RNA stabilization solution (ThermoFisher) before processed. Total RNA was extracted from cells or tissues using TRIZOL reagent (Life Technologies) and 1500 ng of messenger RNA (mRNA) was subjected to synthesize complementary DNA (cDNA) using SuperScript VILO cDNA synthesis kit. qRT-PCR was performed in a StepOnePlus Real-Time PCR system using Platinum SYBR Green qPCR SuperMix-UDG (ThermoFisher). Target gene expression was calculated using the comparative CT method (ΔΔCT) and normalized to an internal control gene Actb (β-actin). Primers used are as follows: Ptgs2 (COX-2) forward: […]; Ptgs2 (COX-2) reverse: […]; Nfkbia (IκBα) forward: […]; Nfkbia (IκBα) reverse: […]; Il1b (IL-1β) forward: […]; Il1b (IL-1β) reverse: […]; Nos2 (iNOS) forward: […]; Nos2 (iNOS) reverse: […]; Tnf (TNF) forward: […]; Tnf (TNF) reverse: […]; Il6 (IL-6) forward: […]; Il6 (IL-6) reverse: […]. Actb (β-actin) forward: […]; Actb (β-actin) reverse: […];
# IKKβ-NEMO interaction = assay: Immunoprecipitation of NEMO and IKKβ immunoblot in Raw 264.7 macrophages and HEK293 cells; type: cell-based; settings: Raw 264.7 macrophages / HEK293; mimetics 100 μM, 8K-NBD 400 μM
# Procedure: The NBD mimetics reduce the interaction between IKKg (NEMO) and IKKß. The indicated concentrations of the drugs were added to HEK 293 or Raw 264.7 cells and cell extracts prepared 30 minutes later. Following immunoprecipitation (IP) of NEMO, the Western was probed for IKKß.
# After treatment with the mimetics or NBD peptide, NEMO was immunoprecipitated by an anti-NEMO antibody and IKKβ was immunoblotted to determine the binding of IKKβ to NEMO.
# HEK293 or Raw264.7 cells were seeded at 1×10^6 cells/well in 6-well plates and treated with vehicle, small molecule or NBD peptide for indicated time. Cells were lysed in NP-40 lysis buffer supplemented with 1× protease inhibitor cocktails (sigma). Protein was immunoprecipitated by incubating 150 μg of lysate with 1 μg of anti-NEMO antibody (Santa Cruz) on a rotating shaker at 4° C. for 4 hrs, followed by incubation with 20 ul of Protein A agarose beads (ThermoFisher) for 1 hr. Beads were washed in NP40 buffer 3 times and PBS once. Protein was then denatured in SDS-sample buffer and resolved by MINI-PROTEAN TGX 4-15% SDS-PAGE. Anti-IKKβ (1:1000 CST) was used to assess binding of IKKβ to NEMO and anti-NEMO (1:1000 CST) or IgG were used to as a loading control.
# mdx mice = assay: Chronic treatment of mdx mice (Duchenne muscular dystrophy model); type: in vivo, mouse; settings: ip 3 times/week for 4 weeks
# Excerpt: Mdx mice develop normally at birth, and then undergo a massive myonecrosis starting at three weeks. Treatment of mdx mice with IKK/NF-kB inhibitors effectively reduces inflammation, block necrosis and increase muscle regeneration. Mdx mice were chronically treated with vehicle, SR12343, SR12460 or 8K-NBD starting from day 21, 3 times/week for 4 weeks. […] To determine if SR12343 and SR12460 improve muscle pathology, tibialis anterior (TA) muscle was stained with hematoxylin and eosin (H&E) to assess inflammatory infiltration, necrosis, central nucleation and fibrosis. […] Fiber size in centrally nucleated and non-centrally nucleated myofibers was also smaller in mice treated with SR12343 and 8K-NBD, indicating active reconstruction of myofiber during the regenerative phase.
# To determine muscle strength post-treatment, grip strength test on forelimbs was performed 2 weeks and 4 weeks post-treatment.
# HEK293 cells were grown in Dulbecco's Modification of Eagles Medium (with 4.5 g/L glucose and L-glutamine), supplemented with 10% fetal bovine serum, penicillin and streptomycin. Raw264.7 cells were cultured in RPMI-1640 media containing 10% heat-inactivated fetal bovine serum, penicillin and streptomycin. C57BL/10ScSn-Dmd^mdx/J and female C57BL/6 mice were purchased from the Jackson Laboratory. Mice were housed in the animal facilities of Scripps Fla. under constant temperature and humidity. Animal protocols used in this study were approved by Scripps Fla. Institutional Animal Care and Use Committees. Three week-old sex-matched mdx mice were dosed with SR12343 (30 mg/kg), […] (30 mg/kg), 8K-NBD peptide (10 mg/kg) or vehicle by intraperitoneal (i.p.) injection 3 times per week for 4 weeks. Mice were sacrificed at 7 weeks of age by carbon dioxide inhalation and tibialis anterior was collected for histological analysis.
# Seven week-old treated or untreated mdx mice were measured for forelimb grip strength using a digital grip strength meter paired with a metal grid (Bioseb). Mice were allowed to grip the metal grid tightly and readings were obtained by gently pulling the tail backward until release. Five sequential measurements were performed and the average force was calculated.
# Tissues fixed in 10% neutral buffered formalin (NBF) overnight were imbedded in paraffin. Tissue was sectioned at […] using a microtome. H&E staining was conducted following a standard protocol (REF).
# T1 sequence (Q9Y6K9 whole entry, one chain of several): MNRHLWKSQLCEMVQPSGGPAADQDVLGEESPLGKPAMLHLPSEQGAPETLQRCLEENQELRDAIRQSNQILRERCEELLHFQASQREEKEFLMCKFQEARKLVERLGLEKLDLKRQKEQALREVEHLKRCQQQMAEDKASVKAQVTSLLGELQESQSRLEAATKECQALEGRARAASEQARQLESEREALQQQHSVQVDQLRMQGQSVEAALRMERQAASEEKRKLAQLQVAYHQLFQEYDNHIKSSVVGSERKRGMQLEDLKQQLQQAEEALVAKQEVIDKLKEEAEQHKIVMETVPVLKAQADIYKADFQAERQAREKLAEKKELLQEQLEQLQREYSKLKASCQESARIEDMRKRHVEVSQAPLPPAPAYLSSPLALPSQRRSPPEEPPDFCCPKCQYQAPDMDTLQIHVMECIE
substance,measurement,setting,value
"8K-NBD peptide: 8K-NBD (KKKKKKKKGGTALDWSWLQTE) peptide, NEMO binding domain peptide with protein transduction domain, control [reference compound]",proteoglycan synthesis and content in the intervertebral disc,Ercc1−/Δ mice,"restored proteoglycan synthesis and content back to levels seen in normal, young mice"
same,level of NEMO co-immunoprecipitated with IKKß,[1],reduced the level of co-immunoprecipitated NEMO
same,epidermal thickness / skin architecture,[2],improved skin architecture and increased epidermal thickness
same,iNOS expression,NF-κB target genes,significantly inhibited
same,"disruption of IKKβ-NEMO interaction (NEMO IP, IKKβ blot)",IKKβ-NEMO interaction,able to disrupt the protein-protein interaction in macrophages at 400 μM
same,expression of eMyHC and Pax 7 in TA muscle (qRT-PCR),mdx mice,"increased eMyHC expression, but to a lower extent compared to SR12343"
same,fiber size in centrally nucleated and non-centrally nucleated myofibers,mdx mice,smaller
same,tibialis anterior muscle pathology (H&E),"mdx mice; SR compounds 30 mg/kg, 8K-NBD 10 mg/kg",reduced inflammatory cell infiltration and necrosis and also promoted muscle regeneration
